Data reported in US20160220569A1, “CDK4/6 Inhibitor Dosage Formulations For The Protection Of Hematopoietic Stem And Progenitor Cells During Chemotherapy” (G1 Therapeutics, Inc., priority 2015, published 2016).
Read-outs that look alike come from different tables or passages of the source.

Assay: 14-day oral gavage toxicokinetic study in rats
Format: in vivo
Settings: rat, plasma, po; for concentration at 0.5 h / concentration at 1 h / concentration at 2 h / concentration at 4 h / concentration at 8 h / concentration at 12 h / concentration at 24 h / concentration at […]: rats; for half-life: read-out: t½ (converted)
Experimental: Plasma was obtained from blood samples collected from rats in a composite sampling scheme, with 3 samples collected per sex, per dose, at each target collection time, as illustrated in Table 21 to Table 25. Samples were collected from the vehicle control group on Day 1 and Day 14 at 3 hour after administration. […] Blood samples were collected in tubes containing K3EDTA as an anticoagulant and placed on ice until processed to plasma via centrifugation. Samples were stored frozen at −80° C. until shipment to the bioanalytical laboratory for analysis.
The following parameters were determined:
Cmax: Maximum observed plasma concentration (ng/mL).
A value of 0 ng/mL was assigned to all values below the lower limit of quantitation (BLQ, <10.0 ng/mL).
AUC(0-inf): Area under the plasma concentration vs. time curve extrapolated from 0 to infinity (ng*h/mL), calculated as AUC(0-t)+AUC(t-inf) where AUC(t-inf) is calculated as last measurable concentration (CLast) divided by ke, where ke is the elimination rate constant determined by linear regression of the last three analytically measured points on the log plasma concentration vs. time curve. The selection criteria of the data points for inclusion in the calculation of ke required that at least three data points representing the terminal phase (after Tmax) were regressed and that R2≧0.850 when rounded.
CL: Clearance (L/h/kg), calculated as the dose divided by AUC(0-t).
Vd: Volume of distribution (L/kg), calculated as dose divided by the product of ke and AUC(0-inf).
Vdss: Steady state volume of distribution (L/kg), calculated as clearance […] mean residence time, where mean residence time is calculated as the area under the first moment curve divided by AUC(0-t).
t½: Elimination half-life (h), calculated as ln(2)/ke, where ke is the elimination rate constant determined by linear regression. Half-life was defined as not determined if regression criteria (specified in AUC(0-inf) above) were not met.
Cmax/Dose: Normalized Cmax, calculated as Cmax divided by total dose.
AUC/Dose: Normalized AUC, calculated as AUC(0-t) divided by total dose.
ii. Statistical Analysis Mean and standard deviation (SD) were calculated in Watson. Values of BLQ were assigned a value of 0 ng/mL for mean calculations. Concentration values and derived TK parameters were reported to three significant figures.

[1] = female, 30 mg/kg, oral 30 mg/kg, Study Day 1, Female
[2] = female, 30 mg/kg, oral 30 mg/kg, Study Day 14, Female
[3] = male, 2 mg/kg, oral 2 mg/kg, Study Day 1, Male
[4] = male, 2 mg/kg, oral 2 mg/kg, Study Day 14, Male

Q: For `CN1CCN(c2ccc(Nc3ncc4cc5n(c4n3)C3(CCCCC3)CNC5=O)nc2)CC1` [Compound 1, 2′-((5-(4-methylpiperazin-1-yl)pyridin-2-yl)amino)-7′,8′-dihydro-6′H-spiro[cyclohexane-1,9′-pyrazino[1′,2′:1,5]pyrrolo[2,3-d]pyrimidin]-6′-one], which concentration at 0.5 h (female, 30 mg/kg, Mean Compound 1 Plasma Concentration, oral 30 mg/kg, Day 1, 0.5 h, Female) is on record?
A: The concentration at 0.5 h was 2160 ng/mL.

Q: And the concentration at 1 h (female, 30 mg/kg, Mean Compound 1 Plasma Concentration, oral 30 mg/kg, Day 1, 1 h, Female)?
A: Its concentration at 1 h is 2140 ng/mL.

Q: And the concentration at 2 h (female, 30 mg/kg, Mean Compound 1 Plasma Concentration, oral 30 mg/kg, Day 1, 2 h, Female)?
A: Its concentration at 2 h is 3090 ng/mL.

Q: What about the concentration at 4 h (female, 30 mg/kg, Mean Compound 1 Plasma Concentration, oral 30 mg/kg, Day 1, 4 h, Female) of the same compound?
A: Its concentration at 4 h is 2510 ng/mL.

Q: What about the concentration at 8 h (female, 30 mg/kg, Mean Compound 1 Plasma Concentration, oral 30 mg/kg, Day 1, 8 h, Female) of the same compound?
A: Its concentration at 8 h is 2470 ng/mL.

Q: And the concentration at 12 h (female, 30 mg/kg, Mean Compound 1 Plasma Concentration, oral 30 mg/kg, Day 1, 12 h, Female)?
A: The concentration at 12 h was 1940 ng/mL.

Q: What about the concentration at 24 h (female, 30 mg/kg, Mean Compound 1 Plasma Concentration, oral 30 mg/kg, Day 1, 24 h, Female) of the same compound?
A: The concentration at 24 h was 284 ng/mL.

Q: And the concentration at […] (female, 30 mg/kg, Mean Compound 1 Plasma Concentration, oral 30 mg/kg, Day 1, […], Female)?
A: Its concentration at […] is 92.9 ng/mL.

Q: What about the concentration at 0.5 h (female, 30 mg/kg, Mean Compound 1 Plasma Concentration, oral 30 mg/kg, Day 14, 0.5 h, Female) of the same compound?
A: Its concentration at 0.5 h is 1540 ng/mL.

Q: What about the concentration at 1 h (female, 30 mg/kg, Mean Compound 1 Plasma Concentration, oral 30 mg/kg, Day 14, 1 h, Female) of the same compound?
A: The concentration at 1 h was 2230 ng/mL.

Q: What about the concentration at 2 h (female, 30 mg/kg, Mean Compound 1 Plasma Concentration, oral 30 mg/kg, Day 14, 2 h, Female) of the same compound?
A: The concentration at 2 h was 2010 ng/mL.

Q: And the concentration at 4 h (female, 30 mg/kg, Mean Compound 1 Plasma Concentration, oral 30 mg/kg, Day 14, 4 h, Female)?
A: Its concentration at 4 h is 2320 ng/mL.

Q: What about the concentration at 8 h (female, 30 mg/kg, Mean Compound 1 Plasma Concentration, oral 30 mg/kg, Day 14, 8 h, Female) of the same compound?
A: The concentration at 8 h was 1960 ng/mL.

Q: And the concentration at 12 h (female, 30 mg/kg, Mean Compound 1 Plasma Concentration, oral 30 mg/kg, Day 14, 12 h, Female)?
A: The concentration at 12 h was 2290 ng/mL.

Q: What about the concentration at 24 h (female, 30 mg/kg, Mean Compound 1 Plasma Concentration, oral 30 mg/kg, Day 14, 24 h, Female) of the same compound?
A: Its concentration at 24 h is 322 ng/mL.

Q: And the concentration at […] (female, 30 mg/kg, Mean Compound 1 Plasma Concentration, oral 30 mg/kg, Day 14, […], Female)?
A: Its concentration at […] is 537 ng/mL.

Q: What about the AUC(0-inf) [1] of the same compound?
A: The AUC(0-inf) was 43800 ng·h/mL.

Q: What about the AUC(0-t) [1] of the same compound?
A: The AUC(0-t) was 41800 ng·h/mL.

Q: And the Cmax [1]?
A: The Cmax was 3090 ng/mL.

Q: And the Tmax [1]?
A: The Tmax was 2 h.

Q: What about the half-life [1] of the same compound?
A: The half-life was 4.92 h.

Q: And the AUC(0-inf) [2]?
A: Its AUC(0-inf) is 43200 ng·h/mL.

Q: What about the AUC(0-t) [2] of the same compound?
A: Its AUC(0-t) is 40600 ng·h/mL.

Q: And the Cmax [2]?
A: Its Cmax is 2320 ng/mL.

Q: What about the Tmax [2] of the same compound?
A: Its Tmax is 4 h.

Q: And the half-life [2]?
A: The half-life was 5.56 h.

Q: What about the concentration at 1 h (male, 2 mg/kg, Compound 1 Plasma Concentration, Male, Day 1, 1 h, daily oral 2 mg/kg (Group 7), individual animals) of the same compound?
A: The concentration at 1 h was 59.1 ng/mL.

Q: What about the concentration at 2 h (male, 2 mg/kg, Compound 1 Plasma Concentration, Male, Day 1, 2 h, daily oral 2 mg/kg (Group 7), individual animals) of the same compound?
A: Its concentration at 2 h is 97.4 ng/mL.

Q: What about the concentration at 4 h (male, 2 mg/kg, Compound 1 Plasma Concentration, Male, Day 1, 4 h, daily oral 2 mg/kg (Group 7), individual animals) of the same compound?
A: The concentration at 4 h was 122 ng/mL.

Q: What about the concentration at 8 h (male, 2 mg/kg, Compound 1 Plasma Concentration, Male, Day 1, 8 h, daily oral 2 mg/kg (Group 7), individual animals) of the same compound?
A: Its concentration at 8 h is 99 ng/mL.

Q: What about the concentration at 12 h (male, 2 mg/kg, Compound 1 Plasma Concentration, Male, Day 1, 12 h, daily oral 2 mg/kg (Group 7), individual animals) of the same compound?
A: The concentration at 12 h was 51.9 ng/mL.

Q: And the concentration at 0.5 h (male, 2 mg/kg, Compound 1 Plasma Concentration, Male, Day 14, 0.5 h, daily oral 2 mg/kg (Group 7), individual animals)?
A: Its concentration at 0.5 h is 36.3 ng/mL.

Q: And the concentration at 2 h (male, 2 mg/kg, Compound 1 Plasma Concentration, Male, Day 14, 2 h, daily oral 2 mg/kg (Group 7), individual animals)?
A: The concentration at 2 h was 84.3 ng/mL.

Q: And the concentration at 4 h (male, 2 mg/kg, Compound 1 Plasma Concentration, Male, Day 14, 4 h, daily oral 2 mg/kg (Group 7), individual animals)?
A: Its concentration at 4 h is 117 ng/mL.

Q: And the concentration at 8 h (male, 2 mg/kg, Compound 1 Plasma Concentration, Male, Day 14, 8 h, daily oral 2 mg/kg (Group 7), individual animals)?
A: Its concentration at 8 h is 68.7 ng/mL.

Q: And the concentration at 12 h (male, 2 mg/kg, Compound 1 Plasma Concentration, Male, Day 14, 12 h, daily oral 2 mg/kg (Group 7), individual animals)?
A: Its concentration at 12 h is 65.7 ng/mL.

Q: And the concentration at 0.5 h (male, 2 mg/kg, Mean Compound 1 Plasma Concentration, oral 2 mg/kg, Day 1, 0.5 h, Male)?
A: The concentration at 0.5 h was 57.7 ng/mL.

Q: What about the concentration at 1 h (male, 2 mg/kg, Mean Compound 1 Plasma Concentration, oral 2 mg/kg, Day 1, 1 h, Male) of the same compound?
A: Its concentration at 1 h is 57.1 ng/mL.

Q: What about the concentration at 2 h (male, 2 mg/kg, Mean Compound 1 Plasma Concentration, oral 2 mg/kg, Day 1, 2 h, Male) of the same compound?
A: Its concentration at 2 h is 102 ng/mL.

Q: And the concentration at 8 h (male, 2 mg/kg, Mean Compound 1 Plasma Concentration, oral 2 mg/kg, Day 1, 8 h, Male)?
A: The concentration at 8 h was 90.4 ng/mL.

Q: And the concentration at 12 h (male, 2 mg/kg, Mean Compound 1 Plasma Concentration, oral 2 mg/kg, Day 1, 12 h, Male)?
A: The concentration at 12 h was 53.7 ng/mL.

Q: And the concentration at 0.5 h (male, 2 mg/kg, Mean Compound 1 Plasma Concentration, oral 2 mg/kg, Day 14, 0.5 h, Male)?
A: The concentration at 0.5 h was 47 ng/mL.

Q: And the concentration at 1 h (male, 2 mg/kg, Mean Compound 1 Plasma Concentration, oral 2 mg/kg, Day 14, 1 h, Male)?
A: The concentration at 1 h was 57.1 ng/mL.

Q: And the concentration at 2 h (male, 2 mg/kg, Mean Compound 1 Plasma Concentration, oral 2 mg/kg, Day 14, 2 h, Male)?
A: The concentration at 2 h was 94.9 ng/mL.

Q: And the concentration at 4 h (male, 2 mg/kg, Mean Compound 1 Plasma Concentration, oral 2 mg/kg, Day 14, 4 h, Male)?
A: Its concentration at 4 h is 116 ng/mL.

Q: What about the concentration at 8 h (male, 2 mg/kg, Mean Compound 1 Plasma Concentration, oral 2 mg/kg, Day 14, 8 h, Male) of the same compound?
A: The concentration at 8 h was 94.2 ng/mL.

Q: What about the concentration at 12 h (male, 2 mg/kg, Mean Compound 1 Plasma Concentration, oral 2 mg/kg, Day 14, 12 h, Male) of the same compound?
A: Its concentration at 12 h is 54 ng/mL.

Q: What about the AUC(0-t) [3] of the same compound?
A: The AUC(0-t) was 1390 ng·h/mL.

Q: What about the Cmax [3] of the same compound?
A: Its Cmax is 126 ng/mL.

Q: What about the Tmax [3] of the same compound?
A: The Tmax was 4 h.

Q: And the half-life [3]?
A: Its half-life is 5.32 h.

Q: And the AUC(0-t) [4]?
A: Its AUC(0-t) is 1360 ng·h/mL.

Q: And the Cmax [4]?
A: Its Cmax is 116 ng/mL.

Q: What about the Tmax [4] of the same compound?
A: Its Tmax is 4 h.

Q: And the half-life [4]?
A: Its half-life is 4.98 h.
